One may read the IC50 as the concentration needed to halve the response being measured.

Structures can show the parent of a compound that is named as a salt.

Assay [1] addresses T1, cKGA (kidney-type glutaminase) (Homo sapiens, UniProt O94925).
T1 sequence (O94925 221-533 limits assumed): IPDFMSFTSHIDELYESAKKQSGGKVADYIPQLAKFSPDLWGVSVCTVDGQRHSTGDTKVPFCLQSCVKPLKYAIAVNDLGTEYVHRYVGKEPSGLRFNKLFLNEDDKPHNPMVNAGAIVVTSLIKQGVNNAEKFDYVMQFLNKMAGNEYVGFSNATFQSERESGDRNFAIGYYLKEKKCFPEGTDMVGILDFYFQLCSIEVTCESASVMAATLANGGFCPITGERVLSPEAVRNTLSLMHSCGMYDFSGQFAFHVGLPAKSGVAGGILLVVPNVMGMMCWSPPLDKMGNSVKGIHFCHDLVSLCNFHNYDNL
Conditions: cited from earlier work.

For assay [2], the system named is irradiated, senescent HUVEC cells. The experiment in a line: Senolytic assay: irradiated senescent vs non-senescent HUVEC cells (CellTiter-Glo). It counts as cell-based, human. The settings on record: 1:3 dilution series, dose-dependent (FIG. 3B, 4, 6A, 6B). The source says: (§1) The ability of candidate agents to eliminate senescent retinal vascular endothelial cells or senescent retinal pigmented epithelial cells can be measured directly in the following assay. Human retinal microvascular endothelial cells (HRMEC) can be obtained from Neuromics® with the designation HEC09 or Cell Systems ACBRI 181. Human umbilical vein endothelial cells (HUVEC) can be obtained from Lonza® with the designation CC-2519. The cells can be maintained and propagated at <75% confluency in ENDO-Growth® Media (Neuromics®, Edina M N) at 3% O2, 10% CO2, and ˜95% humidity. Human retinal pigmented epithelial cells (RPE) can be obtained from Lonza® with the designation 194987. […]
(§2) On day 0, the irradiated HRMEC or RPE or HUVEC cells can be incubated with TrypLE trypsin-containing reagent (Thermofisher® Scientific, Waltham, Massachusetts) until the cells round up and begin to detach from the plate. Cells can then be dispersed, counted, and prepared in medium at a concentration of 100,000 cells per mL. […] On day 3, the quiescent healthy non-senescent HRMEC or RPE cells can be trypsinized from the culture flask as described above, and the cells can be dispersed, counted, and prepared in medium at a concentration of 80,000 cells per mL. […]
A general note: ATP-based viability assays read luminescence as a measure of living cells.

For assay [3], the system named is irradiated, senescent HRMEC cells. The experiment in a line: Senolytic assay: irradiated senescent vs non-senescent HRMEC cells (CellTiter-Glo). Conditions: 1:3 dilution series, dose-dependent (FIG. 3A, FIG. 5). It counts as cell-based, human.
From the text: as §1, §2

A further assay has as its target T2, GPX4 (Mus musculus, UniProt O70325).
T2 construct: from tissue; host or cells: adult murine retina
The experiment in a line: GPX4 competitive target engagement gel-shift assay, adult murine retinas. The class given is in vivo. Conditions: integrated band density (FIGS. 8A-8C). The procedure:
A gel shift assay was developed for the detection of either in vitro cell line or in vivo tissue target engagement (TE) of a GPX4 inhibitor. See FIG. 7 for a schematic of the assay.
In vitro labeling protocol: Two frozen murine retinas were added directly to 0.5 mL Precellys® tubes with ceramic beads and 200 μL of cold mPER with 1× Roche EDTA-free protease inhibitors and 5 mM TCEP. The retina tissue was homogenized using a single 15 s burst at 4500 RPM at 4° C. The tubes were spun at 5 k×g for 5 min @ 4° C. to remove the foam, then all liquid was transferred to 1.5 mL Eppendorfs®. The samples were spun @ 20 k×g for 10 min at 4° C., and the clarified lysates were transferred to clean tubes. 27.5 μL of each of the vehicle controls were combined into one tube to provide a labeling standard sample.
For the labeling control, 50 μL of sample was added to 1 μL of 5 mM RSL3 and another 50 μL of sample was added to DMSO as a control. The samples were mixed and incubated for 1 hr at room temperature (RT). […]
Blots were blocked with 5% Milk in TBST for 1 hr. […] Anti-rabbit-HRP was used at 1:5000 in 5% milk in TBST for ˜1 hr RT and signal was detected using the Western Pico® ECL reagent. […] The integrated density of bands for +/−streptavidin was quantitated using ImageJ® (National Institutes of Health).

A further assay deals with T3, GLS2 (Homo sapiens, UniProt Q9UI32).
T3 sequence (Q9UI32 15-602): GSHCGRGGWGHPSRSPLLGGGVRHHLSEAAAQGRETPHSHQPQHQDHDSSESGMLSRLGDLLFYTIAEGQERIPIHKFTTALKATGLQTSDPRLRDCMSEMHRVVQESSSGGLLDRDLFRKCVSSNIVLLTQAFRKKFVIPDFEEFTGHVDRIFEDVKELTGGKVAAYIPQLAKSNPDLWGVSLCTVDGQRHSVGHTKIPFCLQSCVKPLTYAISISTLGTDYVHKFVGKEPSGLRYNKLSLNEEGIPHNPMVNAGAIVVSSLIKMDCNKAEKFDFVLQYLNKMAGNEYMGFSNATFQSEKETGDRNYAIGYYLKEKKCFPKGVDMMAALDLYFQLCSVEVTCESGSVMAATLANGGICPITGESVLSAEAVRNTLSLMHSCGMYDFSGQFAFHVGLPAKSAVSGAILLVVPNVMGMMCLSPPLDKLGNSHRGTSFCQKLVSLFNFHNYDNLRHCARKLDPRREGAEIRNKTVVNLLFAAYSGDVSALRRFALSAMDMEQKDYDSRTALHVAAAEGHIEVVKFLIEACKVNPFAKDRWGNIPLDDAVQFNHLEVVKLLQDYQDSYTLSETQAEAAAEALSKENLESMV
Conditions: cited from earlier work.

Assay [4] deals with T4, transglutaminase 2 (TGase 2) (Homo sapiens, UniProt P21980).
T4 sequence (P21980 1-687): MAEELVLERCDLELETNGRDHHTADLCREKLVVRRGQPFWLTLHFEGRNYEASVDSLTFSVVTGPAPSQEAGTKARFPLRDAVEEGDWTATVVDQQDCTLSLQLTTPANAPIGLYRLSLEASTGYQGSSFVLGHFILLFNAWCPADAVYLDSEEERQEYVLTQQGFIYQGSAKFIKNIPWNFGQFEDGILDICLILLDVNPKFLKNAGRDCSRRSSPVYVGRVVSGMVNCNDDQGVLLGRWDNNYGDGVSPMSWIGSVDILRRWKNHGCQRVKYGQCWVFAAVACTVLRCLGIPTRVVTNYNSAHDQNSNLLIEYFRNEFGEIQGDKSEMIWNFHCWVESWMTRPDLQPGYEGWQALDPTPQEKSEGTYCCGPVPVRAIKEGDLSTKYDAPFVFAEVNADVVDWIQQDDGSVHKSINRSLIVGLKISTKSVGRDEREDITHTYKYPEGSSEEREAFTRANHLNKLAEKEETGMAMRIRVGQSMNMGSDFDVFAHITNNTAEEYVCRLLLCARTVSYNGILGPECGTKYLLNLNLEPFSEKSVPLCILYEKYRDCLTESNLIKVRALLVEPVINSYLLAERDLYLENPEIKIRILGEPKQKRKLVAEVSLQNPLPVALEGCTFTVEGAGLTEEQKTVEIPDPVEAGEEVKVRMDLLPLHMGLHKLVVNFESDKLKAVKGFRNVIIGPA
Conditions: under a modified assay condition; cited from earlier work.

T2 sequence (O70325 whole entry): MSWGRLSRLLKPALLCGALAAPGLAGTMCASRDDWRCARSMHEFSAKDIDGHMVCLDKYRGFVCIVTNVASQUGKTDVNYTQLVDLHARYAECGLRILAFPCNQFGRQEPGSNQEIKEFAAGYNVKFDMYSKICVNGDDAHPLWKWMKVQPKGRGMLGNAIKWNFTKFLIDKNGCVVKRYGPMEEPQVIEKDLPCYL

As for `[N-]=[N+]=CC(=O)CC[C@H](N)C(=O)O` [6-Diazo-5-oxo-L-norleucine], the IC50 in assay [1] was ~1000 µM.

Consider `COC(=O)c1ccc([C@H]2c3[nH]c4ccccc4c3C[C@H](C(=O)OC)N2C(=O)CCl)cc1` [RSL3, (1S,3R)-methyl 2-(2-chloroacetyl)-1-(4-(methoxycarbonyl)phenyl)-2,3,4,9-tetrahydro-1H-pyrido[3,4-b]indole-3-carboxylate], for which the “selective killing of senescent HUVEC cells as compared to non-senescent HUVECs” value in assay [2] is “selectively senolytic”. Also, the “selective killing of senescent HRMEC cells as compared to non-senescent HRMECs” value in assay [3] is on record as “selectively senolytic”. The “GPX4 target engagement (TE)” value at GPX4 is “dose-dependent GPX4 TE”.

`O=C(/C(C[N+](=O)[O-])=N/O)N1CCN(C(c2ccc(Cl)cc2)c2ccc(Cl)cc2)CC1` [JKE-1674, (E)-1-(4-(bis(4-chlorophenyl)methyl)piperazin-1-yl)-2-(hydroxyimino)-3-nitropropan-1-one]: in assay [2], the “selective killing of senescent HUVEC cells as compared to non-senescent HUVECs” value was “selectively senolytic”.

With `CNC(=O)c1cn(C[C@H](F)CCc2ccc(NC(=O)Cc3cc(OC4CC(F)(F)C4)cc(C)n3)nn2)nn1` [IPN-60090 dihydrochloride], the “activity against GLS-2” value at GLS2 is on record as “no activity observed”.

For the molecule `Cc1onc(C(=O)N2CCN(C(c3ccc(Cl)cc3)c3ccc(Cl)cc3)CC2)c1[N+](=O)[O-]` [ML210], in assay [3], the “selective killing of senescent HRMEC cells as compared to non-senescent HRMECs” value was “selectively senolytic”.

Regarding GK921, the IC50 in assay [4] was 8.93 µM.

The values above are taken from US20240245680A1, “Methods of Treating Retinal Vasculopathies” (Unity Biotechnology, Inc., priority 2021, published 2024).
